Measurements: US20030013660A1, “Dioxolane analogs for improved inter-cellular delivery” (Shire BioChem Inc., priority 2000, published 2003)
Like-named read-outs stand apart in the source and are kept apart here.

Legend:
Assay in all cases: 3H-TdR (3H-thymidine) incorporation assay at 72 hr
H-460 = assay type: cell-based, Human; conditions: 3H-TdR incorporation at 72 hr
MCF-7 = assay type: cell-based, Human; conditions: 3H-TdR incorporation at 72 hr
SF-268 = assay type: cell-based, Human; conditions: 3H-TdR incorporation at 72 hr
CCRF-CEM = assay type: cell-based; conditions: 3H-TdR incorporation at 72 hr
Description: (§1) Table of IC50 Values (μM) for Controls
(§2) Exposition of 24 hr to drug, wash, incubated for another 48 hr (total of 72 hr assay)
(§3) (3H-Thymidine Incorporation Assay)

CEM/dCK- = assay type: cell-based; conditions: for IC50: Homo sapiens, CCRF-CEM, read-out: IC50 CEM/dCK- 24 h, 24 h drug exposure, wash, another 48 hr, deoxycytidine kinase-deficient CCRF-CEM; for Factor* (Resistance Factor = Ratio of dCK- on Wild-type CCRF-CEM): ratio of IC50 CEM/dCK- to CCRF-CEM, 24 h
Description: as §1, §2, §3

[1] = Homo sapiens, NCI-H460, read-out: IC50 H-460 24 h, 24 h drug exposure, wash, another 48 hr
[2] = Homo sapiens, MCF7, read-out: IC50 MCF-7 24 h, 24 h drug exposure, wash, another 48 hr
[3] = Homo sapiens, SF-268, read-out: IC50 SF-268 24 h, 24 h drug exposure, wash, another 48 hr
[4] = Homo sapiens, CCRF-CEM, read-out: IC50 CCRF-CEM 24 h, 24 h drug exposure, wash, another 48 hr

Row | IC50 (H-460; [1]) [nM] | IC50 (MCF-7; [2]) [nM] | IC50 (SF-268; [3]) [nM] | IC50 (CCRF-CEM; [4]) [nM] | IC50 (CEM/dCK-) [nM] | IC50 (H-460; read-out: IC50 H-460 24 h, 24 h drug exposure, wash, another 48 hr) [nM] | IC50 (MCF-7; read-out: IC50 MCF-7 24 h, 24 h drug exposure, wash, another 48 hr) [nM] | IC50 (SF-268; read-out: IC50 SF-268 24 h, 24 h drug exposure, wash, another 48 hr) [nM] | IC50 (CCRF-CEM; read-out: IC50 CCRF-CEM 24 h, 24 h drug exposure, wash, another 48 hr) [nM] | SMILES | Factor* (Resistance Factor = Ratio of dCK- on Wild-type CCRF-CEM) (CEM/dCK-)
1 | 22 | 77 | 160 | 28 | > 100000 | – | – | – | – | COc1ccc(OC(=O)OC[C@H]2OC[C@@H](n3ccc(N)nc3=O)O2)cc1 [Compound 118, CARBONIC ACID 4-(4- AMINO-2-OXO-2H- PYRIMIDIN-1-YL)- [1,3]DIOXOLAN-2- YLMETHYL ESTER 4- METHOXY-PHENYL ESTER] | >3571
2 | 17000 | 27000 | 94000 | 56000 | 96000 | – | – | – | – | CCCCCCNC(=O)Nc1ccn([C@@H]2CO[C@H](COC(=O)NCCCCCC)O2)c(=O)n1 [Compound 119, HEXYL-CARBANIC ACID 4- [4-(3-HEXYL-UREIDO)-2- OXO-2#H!-PYRIMIDIN-1- YL]-[1,3]DIOXOLAN-2- YLMETHYL ESTER] | ˜2
3 | > 100000 | 64000 | > 100000 | > 100000 | > 100000 | – | – | – | – | CCCCCCNC(=O)Nc1ccn([C@@H]2CO[C@H](CO)O2)c(=O)n1 [Compound 120, 1-HEXYL-3-[1-(2- HYDROXYMETHYL- [1,3]DIOXOLAN-4-YL)-2- OXO-1,2-DIHYDRO- PYRIMIDIN-4-YL]-UREA] | –
4 | 28000 | 37000 | > 100000 | 17000 | > 100000 | – | – | – | – | CCCCCCNC(=O)OC[C@H]1OC[C@@H](n2ccc(N)nc2=O)O1 [Compound 121, HEXYL-CARBAMIC ACID 4- (4-AMINO-2-OXO-2H- PYRIMIDIN-1-YL)- [1,3]DIOXOLAN-2- YLMETHYL ESTER] | >6
5 | 1900 | 210 | 570 | 710 | 61000 | – | – | – | – | CCCCCCOC(=O)OC[C@H]1OC[C@@H](n2ccc(NC(=O)OCc3ccccc3)nc2=O)O1 [Compound 122, CARBONIC ACID 4-(4- BENZYLOXYCARBONYLAMINO- 2-OXO-2H-PYRIMIDIN-1- YL)-[1,3]DIOXOLAN-2- YLMETHYL ESTER HEXYL ESTER] | 86
6 | 1000 | 1400 | 2000 | 870 | 15000 | – | – | – | – | COc1ccc(C(OC[C@H]2OC[C@@H](n3ccc(N)nc3=O)O2)(c2ccccc2)c2ccc(OC)cc2)cc1 [Compound 123, 4-AMINO-1-{2-[BIS-(4- METHOXY-PHENYL)-PHENYL- METHOXYMETHYL]- [1,3]DIOXOLAN-4-YL}-1H- PYRIMIDIN-2-ONE] | 17
7 | 13000 | 14000 | 49000 | 14000 | 27000 | – | – | – | – | CC(C)c1ccc(NC(=O)OC[C@H]2OC[C@@H](n3ccc(NC(=O)OCc4ccccc4)nc3=O)O2)cc1 [Compound 124, {1-[2-(4-ISOPROPYL- PHENYLCARBAMOYLOXYMETHY L)-[1,3]DIOXOLAN-4-YL]- 2-OXO-1,2-DIHYDRO- PYRIMIDIN-4-YL}- CARBAMIC ACID BENZYL ESTER] | ˜2
8 | 240 | 16 | 600 | 72 | 7000 | – | – | – | – | CC(C)(C)OC(=O)N(CCCCC(C)(C)C(=O)Nc1ccn([C@@H]2CO[C@H](CO)O2)c(=O)n1)Cc1ccccc1 [Compound 125, Benzyl-{5-[1-(2-hydroxymethyl-[1,3]dioxolan-4-yl)-2-oxo-1,2-dihydro-pyrimidin-4-ylcarbamoyl]-5-methyl-hexyl}-carbamic acid tert-butyl ester] | 97
9 | 4.1 | 2 | 8.5 | 1.6 | 13000 | – | – | – | – | CCCCCCOC(=O)OC[C@H]1OC[C@@H](n2ccc(N)nc2=O)O1 [Compound 126, CARBONIC ACID 4-(4- AMINO-2-OXO-2H- PYRIMIDIN-1-YL)- [1,3]DIOXOLAN-2- YLMETHYL ESTER HEXYL ESTER] | 8,125
10 | 110 | 100 | 12 | 21 | 83000 | – | – | – | – | CC(C)C(NC(=O)OCc1ccccc1)C(=O)OC[C@H]1OC[C@@H](n2ccc(/N=C/N(C)C)nc2=O)O1 (stereo partly drawn) [Compound 131, (2S,4S)-2- (BENZYLOXYCARBONYL-L- VALINOXYMETHYL)-4-(4′- N,N- DIMETHYLAMINOMETHYLENE- CYTOSIN-1′-YL)-1,3- DIOXOLANE] | 3,952
11 | 21 | 100 | 16 | 27 | 31000 | – | – | – | – | CN(C)/C=N/c1ccn([C@@H]2CO[C@H](COC(=O)C(C)(C)C)O2)c(=O)n1 [Compound 133, 2,2-Dimethyl-propionic acid 4-[4-(dimethylamino-methyleneamino)-2-oxo-2H-pyrimidin-1-yl]-[1,3]dioxolan-2-ylmethyl ester] | 1,148
12 | 12000 | 11000 | 3000 | 7000 | 20000 | – | – | – | – | COc1ccc(C(OC[C@H]2OC[C@@H](n3ccc(N)nc3=O)O2)(c2ccccc2)c2ccccc2)cc1 [Compound 134, 4-AMINO-1-{2-[(4- METHOXY-PHENYL)- DIPHENYL- METHOXYMETHYL]- [1,3]DIOXOLAN-4-YL}-1H- PYRIMIDIN-2-ONE] | 3
13 | 9000 | 12000 | 3000 | 4000 | > 100000 | – | – | – | – | O=c1nc(NC2Sc3ccccc3S2)ccn1[C@@H]1CO[C@H](CO)O1 [Compound 136, 4-(BENZO[1,3]DITHIOL-2- YLAMINO)-1-(2- HYDROXYMETHYL- [1,3]DIOXOLAN-4-YL)- 1H!PYRIMIDIN-2-ONE] | >25
14 | 920 | 1500 | 2100 | 530 | 58000 | – | – | – | – | Nc1ccn([C@@H]2CO[C@H](COC3Sc4ccccc4S3)O2)c(=O)n1 [Compound 138, 4-AMINO-1-[2- (BENZO[1,3]DITHIOL-2- YLOXYMETHYL)- [1,3]DIOXOLAN-4-YL]-1H- PYRIMIDIN-2-ONE] | 109
15 | 810 | 1400 | 1300 | 400 | > 100000 | 510 | 1700 | 1700 | 420 | COC(OC)(OC[C@H]1OC[C@@H](n2ccc(N)nc2=O)O1)c1ccccc1 [Compound 139, 4-AMINO-1-[2- (DIMETHOXY-PHENYL- METHOXYMETHYL)- [1,3]DIOXOLAN-4-YL]-1H- PYRIMIDIN-2-ONE] | >250
16 | 10000 | 20000 | 3000 | 11000 | > 100000 | – | – | – | – | CN(Cc1ccccc1)C(=O)OC[C@H]1OC[C@@H](n2ccc(N)nc2=O)O1 [Compound 140, BENZYL-METHYL-CARBAMIC ACID 4-(4-AMINO-2-OXO- 2H-PYRIMIDIN-1-YL)- [1,3]DIOXOLAN-2- YLMETHYL ESTER] | >9
17 | 34 | 66 | 40 | 19 | 69000 | – | – | – | – | CCCCC(OC)(OC)OC[C@H]1OC[C@@H](n2ccc(N)nc2=O)O1 [Compound 141, 4-AMINO-1-[2-(1,1- DIMETHOXY- PENTYLOXYMETHYL)- [1,3]DIOXOLAN-4-YL]-1H- PYRIMIDIN-2-ONE] | 3,632

Row | SMILES | IC50 (H-460; [1]) [nM] | IC50 (MCF-7; [2]) [nM] | IC50 (SF-268; [3]) [nM] | IC50 (CCRF-CEM; [4]) [nM] | IC50 (CEM/dCK-) [nM] | IC50 (H-460; read-out: IC50 H-460 24 h, 24 h drug exposure, wash, another 48 hr) [nM] | IC50 (MCF-7; read-out: IC50 MCF-7 24 h, 24 h drug exposure, wash, another 48 hr) [nM] | IC50 (SF-268; read-out: IC50 SF-268 24 h, 24 h drug exposure, wash, another 48 hr) [nM] | IC50 (CCRF-CEM; read-out: IC50 CCRF-CEM 24 h, 24 h drug exposure, wash, another 48 hr) [nM] | Factor* (Resistance Factor = Ratio of dCK- on Wild-type CCRF-CEM) (CEM/dCK-)
18 | CN(C)/C=N/c1ccn([C@@H]2CO[C@H](COC(=O)CC34CC5CC(CC(C5)C3)C4)O2)c(=O)n1 [Compound 129, (2S,4S)-2-(1″- ADMANTANEACETOXY)METHYL -4-(4′-N,N- DIMETHYLAMINOMETHYLENE- CYTOSIN-1′-YL)-1,3- DIOXOLANE] | 150 | 20 | 200 | 72 | 15000 | – | – | – | – | 208
19 | CN(C)/C=N/c1ccn([C@@H]2CO[C@H](COC(=O)C(c3ccccc3)c3ccccc3)O2)c(=O)n1 [Compound 130, (2S,4S)-2-(2″- DIPHENYLACETOXYMETHYL)- 4-(4′-N,N- DIMETHYLAMINOMETHYLENE- CYTOSIN-1′-YL)-1,3- DIOXOLANE] | 58 | 50 | 110 | 57 | 75000 | – | – | – | – | 1,316
